Earlier results as cited in patent US20050261237A1, “Nucleoside phosphonate analogs” (priority 2003, published 2005).

Tests used:
[1] = molecular target: PNP enzyme from Mycobacterium tuberculosis (MtPNP) (Mycobacterium tuberculosis, UniProt P9WP01); details: Lewandowics A. et al., Biochemistry (2003) 42, 6057
HIV = details: described in the literature; 61.1 with Base=G

Sequence of PNP enzyme from Mycobacterium tuberculosis (MtPNP) (P9WP01 whole entry): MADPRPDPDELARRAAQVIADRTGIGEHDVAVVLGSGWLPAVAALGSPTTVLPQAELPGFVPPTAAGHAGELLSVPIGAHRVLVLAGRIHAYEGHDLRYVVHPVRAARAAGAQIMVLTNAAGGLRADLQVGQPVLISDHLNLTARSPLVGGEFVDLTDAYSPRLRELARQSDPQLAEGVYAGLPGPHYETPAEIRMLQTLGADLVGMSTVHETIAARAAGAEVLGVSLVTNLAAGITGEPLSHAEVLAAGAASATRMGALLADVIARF

Row | SMILES | inhibition of the PNP enzyme from Mycobacterium tuberculosis (MtPNP) [1] | anti-HIV activity (HIV) [µM]
1 | Nc1nc2c(CN3C[C@H](CO)[C@@H](O)C3)c[nH]c2c(=O)[nH]1 [DADMe-ImmG] | highly potent | 
2 | Nc1nc(=O)c2ncn([C@@H]3C[C@H](CO)[C@H]3CO)c2[nH]1 [lubocavir] |  | 30
